The values below come from ChEMBL document CHEMBL1153838, “Optimization of the dosage of flucytosine in combination with amphotericin B for disseminated candidiasis: a pharmacodynamic rationale for reduced dosing” (2007).

Converted amounts (≈) assume the structure as drawn.

Holding throughout (type): functional
The subject of test [1] is Candida. Nature of the test: Antifungal activity against Candida species infected patients assessed as residual fungal burden at 0.3 mg/kg/day administered as single dose.
Test [2] is described as follows: T>MIC in Candida species infected patients at 25 mg/kg/day administered as four divided doses.
The subject of test [3] is Candida. Nature of the test: Antifungal activity against Candida species infected patients assessed as residual fungal burden at 0.1 mg/kg/day administered as single dose.
The subject of test [4] is Candida. Kind of test: Antifungal activity against Candida species infected patients assessed as residual fungal burden at 0.6 mg/kg/day administered as single dose.
Test [5] relates to Candida. Nature of the test: Antifungal activity against Candida isolates.
The subject of test [6] is Candida. Kind of test: Antifungal activity against Candida isolates by CLSI methods.
The test system of another test is Candida albicans. Nature of the test: Antifungal activity against Candida albicans isolates by broth microdilution method.

On to `C[C@@H]1[C@H](O)[C@@H](C)/C=C/C=C/C=C/C=C/C=C/C=C/C=C/[C@H](O[C@@H]2O[C@H](C)[C@@H](O)[C@H](N)[C@@H]2O)C[C@@H]2O[C@](O)(C[C@@H](O)C[C@@H](O)[C@H](O)CC[C@@H](O)C[C@@H](O)CC(=O)O[C@H]1C)C[C@H](O)[C@H]2C(=O)O` [AMPHOTERICIN B], for which the log10CFU/g in the test with Candida [1] is reported as 1; in the test on Candida [3], 2.2; in the test on Candida [4], 0.6. In addition, the “T>MIC” value in test [2] was determined as 100%. In the test with Candida [5], this compound yielded an MIC of at most 1 µg/mL.
Turning to `Nc1nc(=O)[nH]cc1F` [FLUCYTOSINE], in the test on Candida [6], the MIC90 worked out at 1 µg/mL (≈ 7.75 µM). The compound further came in with an MIC in the test on Candida albicans of 0.125 µg/mL (≈ 0.968 µM).
